From patent publication US20040121946A9, “Inducing cellular immune responses to her2/neu using peptide and nucleic acid compositions” (priority 2002, published 2004)
Like-named read-outs stand apart in the source and are kept apart here. Where no end group is shown, it is not given here.

Legend:
DRB1*0701 (DR7) = DRB1*0701 (DR7) (Homo sapiens, UniProt P01903+P01911, A100R/A102G/A103Q/D57E/D86V/E43K/F76Y/K127E/L162R/M171V/P40G/Q125H/Q99D/R33Q/R42Y/R54Q/S133A/S66F/T210M/V115G/Y107V/Y59L/Y89S); assay: HLA class II peptide binding assay, purified HLA; details: Table XIX, DR supermotif peptides; unit not given
DRB1*0401 (DR4w4) = DRB1*0401 (DR4w4) (Homo sapiens, UniProt P01903+P01911, A100K/A169T/F76Y/I96L/K127E/L162R/M171V/N62H/P40V/Q125Y/R42H/S133A/S149N/S66Y/V115G/V209L/W38E); assay: HLA class II peptide binding assay, purified HLA; details: Table XIX, DR supermotif peptides; unit not given
[1] = system: HLA-DR molecules (DR1, DR4w4, DR7, DRB5*0101, DRB1*1501, DRB1*1101, DRB1*0802, DRB1*1302); assay: DR supertype cross-reactive binding; parameters: species or system human; details: number of DR1, DR4w4, DR7 bound, Table XXVIII
DRB1*0101 (DR1) = DRB1*0101 (DR1) (Homo sapiens, UniProt P01903+P01911, A100R/D57E/F55L/F60I/F76Y/I96L/L162R/M171V/P40L/Q125E/R42F/V115G/Y59C); assay: HLA class II peptide binding assay, purified HLA; details: Table XIX, DR supermotif peptides; unit not given
[2] = system: B7-supertype molecules (B*0702, B*3501, B*5101, B*5301, B*5401); assay: B7-supertype cross-reactive binding; parameters: species or system human; details: of five B7-supertype alleles tested
HLA-B*0702 = HLA-B*0702 (Homo sapiens, UniProt P01889); type: binding
[3] = Table XXIV, B7 supermotif peptides

Compound	No. of B7 Alleles Crossbound [2]	IC50 (HLA-B*0702; [3])	further results
CSCC[C@H](NC(=O)[C@H](CC(C)C)NC(=O)[C@H](CCC(=O)O)NC(=O)[C@H](Cc1c[nH]c2ccccc12)NC(=O)[C@@H](NC(=O)[C@@H](NC(=O)[C@@H](NC(=O)CN)C(C)C)[C@@H](C)O)C(C)C)C(=O)N[C@H](C(=O)N[C@@H](Cc1ccccc1)C(=O)NCC(=O)N[C@@H](C)C(=O)N[C@@H](CCCCN)C(=O)N1CCC[C@H]1C(=O)N[C@@H](Cc1ccc(O)cc1)C(=O)O)[C@@H](C)O	–	–	DR7 binding data (DRB1*0701 (DR7)): 0.0170; DR4w4 binding data (DRB1*0401 (DR4w4)): 0.0330; DR147 Cross-binding [1]: 1
CC[C@H](C)[C@H](NC(=O)[C@@H]1CCCN1C(=O)[C@H](CCSC)NC(=O)[C@H](Cc1ccc(O)cc1)NC(=O)[C@H](CO)NC(=O)[C@H](CC(C)C)NC(=O)[C@H](CC(=O)O)NC(=O)[C@@H]1CCCN1C(=O)[C@@H](N)CCCCN)C(=O)N[C@@H](Cc1c[nH]c2ccccc12)C(=O)N[C@@H](CCCCN)C(=O)N[C@@H](Cc1ccccc1)C(=O)N1CCC[C@H]1C(=O)N[C@@H](CC(=O)O)C(=O)N[C@@H](CCC(=O)O)C(=O)O	–	–	DR4w4 binding data (DRB1*0401 (DR4w4)): −0.0025; DR147 Cross-binding [1]: 1
CC[C@H](C)[C@H](NC(=O)[C@H](CC(C)C)NC(=O)[C@H](C)NC(=O)[C@H](CC(C)C)NC(=O)CNC(=O)[C@H](CO)NC(=O)CNC(=O)[C@H](CC(C)C)NC(=O)[C@H](CCC(=O)O)NC(=O)[C@H](CCCNC(=N)N)NC(=O)[C@@H](N)CC(C)C)C(=O)N[C@@H](Cc1c[nH]cn1)C(=O)N[C@@H](Cc1c[nH]cn1)C(=O)N[C@@H](CC(N)=O)C(=O)N[C@H](C(=O)O)[C@@H](C)O	–	–	DR1 binding data (DRB1*0101 (DR1)): 0.0310; DR7 binding data (DRB1*0701 (DR7)): −0.0013; DR4w4 binding data (DRB1*0401 (DR4w4)): −0.0025; DR147 Cross-binding [1]: 1
CC[C@H](C)[C@H](NC(=O)[C@@H]1CCCN1)C(=O)N[C@@H](CCCCN)C(=O)N[C@@H](Cc1c[nH]c2ccccc12)C(=O)N[C@@H](CCSC)C(=O)N[C@@H](C)C(=O)N[C@@H](CC(C)C)C(=O)N[C@@H](CCC(=O)O)C(=O)N[C@@H](CO)C(=O)N[C@H](C(=O)N[C@@H](CC(C)C)C(=O)N[C@@H](CCCNC(=N)N)C(=O)N[C@@H](CCCNC(=N)N)C(=O)N[C@@H](CCCNC(=N)N)C(=O)N[C@@H](Cc1ccccc1)C(=O)O)[C@@H](C)CC	–	–	DR1 binding data (DRB1*0101 (DR1)): 0.7900; DR7 binding data (DRB1*0701 (DR7)): 0.0078; DR4w4 binding data (DRB1*0401 (DR4w4)): 0.0350; DR147 Cross-binding [1]: 1
CC(C)C[C@H](NC(=O)[C@H](C)NC(=O)[C@H](Cc1ccc(O)cc1)NC(=O)[C@H](CC(N)=O)NC(=O)[C@H](CC(=O)O)NC(=O)[C@H](CCC(=O)O)NC(=O)[C@H](Cc1ccccc1)NC(=O)[C@H](CC(C)C)NC(=O)[C@H](CCC(N)=O)NC(=O)[C@@H](N)[C@@H](C)O)C(=O)N[C@@H](C)C(=O)N[C@H](C(=O)N[C@@H](CC(C)C)C(=O)N[C@@H](CC(=O)O)C(=O)N[C@@H](CC(N)=O)C(=O)O)C(C)C	–	–	DR1 binding data (DRB1*0101 (DR1)): 0.0530; DR7 binding data (DRB1*0701 (DR7)): 0.0160; DR4w4 binding data (DRB1*0401 (DR4w4)): −0.0025; DR147 Cross-binding [1]: 1
CC[C@H](C)[C@H](NC(=O)[C@H](CO)NC(=O)[C@H](CCCNC(=N)N)NC(=O)[C@H](Cc1ccc(O)cc1)NC(=O)[C@H](Cc1ccccc1)NC(=O)[C@@H](NC(=O)[C@H](CO)NC(=O)[C@H](CC(=O)O)NC(=O)[C@H](CC(C)C)NC(=O)[C@@H]1CCCN1C(=O)[C@@H](N)Cc1ccccc1)[C@@H](C)O)C(=O)O [Her2/neu.998.F1I11]	3	229 nM	–
CC(C)C[C@H](NC(=O)[C@H](CO)NC(=O)[C@H](CCCNC(=N)N)NC(=O)[C@H](Cc1ccc(O)cc1)NC(=O)[C@H](Cc1ccccc1)NC(=O)[C@@H](NC(=O)[C@H](CO)NC(=O)[C@H](CC(=O)O)NC(=O)[C@H](CC(C)C)NC(=O)[C@@H]1CCCN1C(=O)[C@@H](N)Cc1ccccc1)[C@@H](C)O)C(=O)O [Her2/neu.998.F1]	4	42 nM	–
CC(C)[C@H](NC(=O)[C@H](Cc1ccc(O)cc1)NC(=O)CNC(=O)[C@H](CC(=O)O)NC(=O)[C@@H](NC(=O)[C@H](CCC(=O)O)NC(=O)[C@H](CO)NC(=O)[C@@H]1CCCN1C(=O)[C@@H](N)Cc1ccccc1)[C@@H](C)O)C(=O)O [Her2/neu.1120.F1]	3	204 nM	–
CC[C@H](C)[C@H](NC(=O)[C@@H]1CCCN1C(=O)[C@H](CC(C)C)NC(=O)[C@@H]1CCCN1C(=O)CNC(=O)[C@H](CCC(=O)O)NC(=O)[C@H](CCCNC(=N)N)NC(=O)[C@@H]1CCCN1C(=O)[C@H](CO)NC(=O)[C@@H]1CCCN1C(=O)[C@@H](N)Cc1ccccc1)C(=O)O [Her2/neu.1149.F1I11]	3	190 nM	–
CC[C@H](C)[C@H](NC(=O)[C@@H](NC(=O)[C@H](C)NC(=O)CNC(=O)[C@H](C)NC(=O)[C@@H]1CCCN1C(=O)[C@H](CCCNC(=N)N)NC(=O)[C@H](C)NC(=O)[C@H](C)NC(=O)[C@@H]1CCCN1C(=O)[C@@H](N)Cc1ccccc1)[C@@H](C)O)C(=O)O [Her2/neu.1157.F1I11]	4	39 nM	–
CPAEQRASPL [Her2/neu.642]	1	37 nM	–
CPSGVKPDLSY [Her2/neu.600]	1	183 nM	–
FPGKNGVI [Her2/neu.1174.F1I8]	3	458 nM	–
FPIKWMAL [Her2/neu.884.F1]	4	–	IC50 (HLA-B*0702): 0.6 nM
FPLAPSEGI [Her2/neu.1073.F1I9]	4	100 nM	–
FPSETDGYI [Her2/neu.1120.F1I9]	4	220 nM	–
FPSGAMPNQI [Her2/neu.701.F1]	3	229 nM	–
FPTHDPSPI [Her2/neu.1101.F1I9]	4	108 nM	–
FPYDGIPA [Her2/neu.921.F1]	4	–	IC50 (HLA-B*0702): 423 nM
FPYDGIPI [Her2/neu.921.F1I8]	5	177 nM	–
LTSHSAVVGILLVV	–	–	DR1 binding data (DRB1*0101 (DR1)): 0.1900; DR7 binding data (DRB1*0701 (DR7)): 0.0049; DR4w4 binding data (DRB1*0401 (DR4w4)): −0.0025
MPNQAQMRILI [Her2/neu.706.I11]	4	344 nM	–
MPYGCLLDHVI [Her2/neu.801.I11]	5	66 nM	–

More lines, in order of falling IC50 (HLA-B*0702; [3]), values ahead:

No. of B7 Alleles Crossbound [2]	IC50 (HLA-B*0702; [3])	Compound	further results
3	34 nM	CC(C)C[C@H](NC(=O)[C@@H]1CCCN1C(=O)[C@@H](N)Cc1ccccc1)C(=O)N1CCC[C@H]1C(=O)N[C@@H](C)C(=O)N[C@@H](C)C(=O)N[C@@H](CCCNC(=N)N)C(=O)N1CCC[C@H]1C(=O)N[C@@H](C)C(=O)O [Her2/neu.1155.F1]	–
3	20 nM	CC[C@H](C)[C@H](NC(=O)[C@H](C)NC(=O)[C@@H]1CCCN1C(=O)[C@H](CC(C)C)NC(=O)[C@@H]1CCCN1C(=O)CNC(=O)[C@H](CCC(=O)O)NC(=O)[C@H](CCCNC(=N)N)NC(=O)[C@@H]1CCCN1C(=O)[C@@H](N)Cc1ccccc1)C(=O)O [Her2/neu.1151.F1I10]	–
3	10 nM	CC(C)C[C@H](NC(=O)[C@@H]1CCCN1C(=O)[C@H](CO)NC(=O)[C@@H]1CCCN1C(=O)[C@H](CC(=O)O)NC(=O)[C@H](Cc1c[nH]cn1)NC(=O)[C@@H](NC(=O)[C@@H]1CCCN1C(=O)[C@@H](N)Cc1ccccc1)[C@@H](C)O)C(=O)O [Her2/neu.1101.F1]	–
3	9.3 nM	CC[C@H](C)[C@H](NC(=O)CNC(=O)[C@H](C)NC(=O)[C@@H]1CCCN1C(=O)[C@H](CCCNC(=N)N)NC(=O)[C@H](C)NC(=O)[C@H](C)NC(=O)[C@@H]1CCCN1C(=O)[C@@H](N)Cc1ccccc1)C(=O)O [Her2/neu.1157.F1I9]	–
3	8.5 nM	FPKANKEII [Her2/neu.760.F1I9]	–
4	6.5 nM	FPLPAARPI [Her2/neu.1155.F1I9]	–
3	6.3 nM	FPSGVKPDI [Her2/neu.600.F1I9]	–
4	3.9 nM	CC(C)C[C@H](NC(=O)[C@@H](NC(=O)[C@H](C)NC(=O)CNC(=O)[C@H](C)NC(=O)[C@@H]1CCCN1C(=O)[C@H](CCCNC(=N)N)NC(=O)[C@H](C)NC(=O)[C@H](C)NC(=O)[C@@H]1CCCN1C(=O)[C@@H](N)Cc1ccccc1)[C@@H](C)O)C(=O)O [Her2/neu.1157.F1]	–
3	3.1 nM	FPAEQRASPI [Her2/neu.642.F1I10]	–
3	1.4 nM	FPAEQRASPL [Her2/neu.642.F1]	–
3	0.3 nM	CC[C@H](C)[C@H](NC(=O)[C@@H]1CCCN1C(=O)[C@H](CC(C)C)NC(=O)[C@@H]1CCCN1C(=O)CNC(=O)[C@H](CCC(=O)O)NC(=O)[C@H](CCCNC(=N)N)NC(=O)[C@@H]1CCCN1C(=O)[C@@H](N)Cc1ccccc1)C(=O)O [Her2/neu.1151.F1I9]	–
